The text below walks through data of ChEMBL document CHEMBL3832036, “Goodman and Gilman Ed. 12 | The Pharmaceutical Basis of Therapeutics| Table AII-I: Pharmacokinetic Data” (2011).

In data set [1] the test system is Homo sapiens. Briefly: Pharmacokinetic parameters for diffferent drugs or their active metabolite, following single oral or intravenous (IV) administration to subjects of different health conditions. Type of data set: ADME, organism-based. On the set-up: dose 50 mg, dose 10 mg, route oral. Particulars: in vivo.
In data set [2] the test system is Homo sapiens. Briefly: Pharmacokinetic parameters for different drugs, or their active metabolite following multiple oral or intravenous administration to subjects of varying health conditions. The format is ADME, organism-based. Details: dose 30 mg, dose 135 mg, route oral. Particulars: in vivo.
The mark [3] stands for this setting: po, dose 10 mg, dosed compound id 63, dosed compound name BACLOFEN, gender male, regimen Single dose, tissue Plasma.
[4] abbreviates: po, dosed compound id 63, dosed compound name BACLOFEN, gender male, regimen Single dose, tissue Plasma.
[5] abbreviates: po, dosed compound id 66, dosed compound name CHLORTHALIDONE, regimen Single dose, tissue Plasma.
[6] abbreviates: iv, dosed compound id 67, dosed compound name AZATHIOPRINE, regimen Single dose, tissue Plasma.
Where [7] appears, read: po, dosed compound id 69, dosed compound name IRBESARTAN, gender male, regimen Single dose, tissue Plasma.

Take `NCC(CC(=O)O)c1ccc(Cl)cc1` (configuration not stated) [BACLOFEN]: in the data set on Homo sapiens [1] (other, dosed compound id 63, dosed compound name BACLOFEN, gender male, regimen Single dose, route intestinal infusion, tissue Plasma), the Vd was found to be 0.81 L/kg. Besides, the CL in the data set with Homo sapiens [1] (other, dosed compound id 63, dosed compound name BACLOFEN, gender male, regimen Single dose, route intestinal infusion, tissue Urine) is given as 2.72 mL/min/kg. Further, in the data set on Homo sapiens [1] (setting [3]), the Tmax (usually the time from dosing to the highest level) stood at 1 h and the t1/2 is 3.75 h. In the data set with Homo sapiens [1] (setting [4]), the Cmax (as a rule, the peak of the concentration-time curve) is on record as 160 ng/mL and the F is 70%.

In the case of `C[C@]12C=CC(=O)C=C1CC[C@@H]1[C@@H]2[C@@H](O)C[C@@]2(C)[C@H]1CC[C@]2(O)C(=O)CO` [PREDNISOLONE], in the data set with Homo sapiens [2], the maximum concentration (Cmax) came out at 458 ng/mL and the Tmax amounted to 1.5 h. Also, in the data set with Homo sapiens [1] (po), the CL is on record as 1 mL/min/kg, the Excretion is listed as 26%, the Vd was 0.42 L/kg and the t1/2 is 2.2 h.

Regarding `NS(=O)(=O)c1cc(C2(O)NC(=O)c3ccccc32)ccc1Cl` (configuration not stated) [CHLORTHALIDONE], the Excretion with Homo sapiens [1] (po, at 50 mg, dosed compound id 66, dosed compound name CHLORTHALIDONE, regimen Single dose, tissue Urine) is reported as 65%. Also, the time to peak (Tmax) in the data set with Homo sapiens [1] (po, dose 50 mg, dosed compound id 66, dosed compound name CHLORTHALIDONE, regimen Single dose, tissue Plasma) was 13.8 h. In addition, in the data set with Homo sapiens [1] (po, dosed compound id 66, dosed compound name CHLORTHALIDONE, regimen Single dose, tissue Blood), the t1/2 turned out to be 47 h. For the same molecule, in the data set on Homo sapiens [1] (setting [5]), the CL is 0.04 mL/min/kg, the Cmax worked out at 3700 ng/mL, the F is listed as 64% and the Vd was found to be 0.14 L/kg.

As for `Cn1cnc([N+](=O)[O-])c1Sc1ncnc2nc[nH]c12` [AZATHIOPRINE], in the data set with Homo sapiens [1] (setting [6]), the CL came to 57 mL/min/kg, the Vd came out at 0.81 L/kg and the t1/2 was 0.16 h.

Turning to `CCCCC1=NC2(CCCC2)C(=O)N1Cc1ccc(-c2ccccc2-c2nnn[nH]2)cc1` [IRBESARTAN], in the data set with Homo sapiens [1] (po, dose 50 mg, dosed compound id 69, dosed compound name IRBESARTAN, gender male, regimen Single dose, tissue Plasma), the Tmax came out at 1.2 h. For the same molecule, in the data set on Homo sapiens [1] (setting [7]), the CL amounted to 2.12 mL/min/kg; the Cmax was 1300 ng/mL; the Vd was found to be 2.9 L/kg; the bioavailability (usually dose-corrected exposure relative to a reference, in per cent) fell in the range of 60 to 80%. Besides, the t1/2 in the data set with Homo sapiens [1] (setting [7]) is 13 h. Besides, the Excretion with Homo sapiens [1] (po, dosed compound id 69, dosed compound name IRBESARTAN, gender male, regimen Single dose, tissue Urine) is 2.2%.

Consider `Sc1ncnc2nc[nH]c12` [MERCAPTOPURINE ANHYDROUS], for which, in the data set with Homo sapiens [2] (dose 135 mg, dosed compound id 621, dosed compound name AZATHIOPRINE, regimen Once daily, route oral, tissue Plasma), the Tmax was 1 to 2 h. For the same molecule, in the data set with Homo sapiens [2] (dosed compound id 621, dosed compound name AZATHIOPRINE, regimen Once daily, tissue Plasma), the highest concentration (Cmax) fell in the range of 20 to 90 ng/mL. In the data set with Homo sapiens [1] (po, dosed compound id 621, dosed compound name AZATHIOPRINE, regimen Single dose, tissue Plasma), the F is given as 60%.
